How the values were obtained:
SNU-16 = test: Antiproliferative activity against human SNU16 cells after 72 hrs by CCK-8 assay; conditions: SNU-16, 72 h
KG-1 = test: Antiproliferative activity against human KG1 cells after 72 hrs by CCK-8 assay; conditions: KG-1, 72 h
[1] = biological target: Fibroblast growth factor receptor 2 (Homo sapiens, UniProt P21802); test: Inhibition of recombinant FGFR2 (unknown origin) using poly (Glu,Tyr)4:1 as substrate after 60 mins by ELISA based spectrophotometric analysis
Sequence of Fibroblast growth factor receptor 2 (P21802 whole entry): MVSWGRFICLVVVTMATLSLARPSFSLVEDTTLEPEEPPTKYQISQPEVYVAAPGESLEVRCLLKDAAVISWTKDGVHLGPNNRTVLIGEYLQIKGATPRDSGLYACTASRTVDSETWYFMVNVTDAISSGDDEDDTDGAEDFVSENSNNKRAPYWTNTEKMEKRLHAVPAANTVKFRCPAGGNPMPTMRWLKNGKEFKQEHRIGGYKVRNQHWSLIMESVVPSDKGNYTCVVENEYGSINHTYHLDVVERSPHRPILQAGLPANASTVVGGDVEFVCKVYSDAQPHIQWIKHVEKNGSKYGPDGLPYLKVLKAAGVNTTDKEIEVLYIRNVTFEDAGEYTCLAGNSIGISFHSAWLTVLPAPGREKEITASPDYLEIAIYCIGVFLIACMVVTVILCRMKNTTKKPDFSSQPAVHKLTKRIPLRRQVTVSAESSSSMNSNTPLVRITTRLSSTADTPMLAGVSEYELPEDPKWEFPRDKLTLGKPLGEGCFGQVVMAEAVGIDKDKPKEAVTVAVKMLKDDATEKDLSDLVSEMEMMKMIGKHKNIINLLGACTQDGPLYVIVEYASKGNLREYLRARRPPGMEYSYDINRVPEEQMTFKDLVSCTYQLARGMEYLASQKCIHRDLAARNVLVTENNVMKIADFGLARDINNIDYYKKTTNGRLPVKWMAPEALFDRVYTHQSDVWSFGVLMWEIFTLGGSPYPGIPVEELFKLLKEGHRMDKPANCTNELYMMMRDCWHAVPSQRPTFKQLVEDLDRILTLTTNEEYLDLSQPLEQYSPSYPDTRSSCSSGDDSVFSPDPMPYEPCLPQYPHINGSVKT

[2] = biological target: Fibroblast growth factor receptor 1 (Homo sapiens, UniProt P11362); test: Inhibition of recombinant FGFR1 (unknown origin) using poly (Glu,Tyr)4:1 as substrate after 60 mins by ELISA based spectrophotometric analysis
Sequence of Fibroblast growth factor receptor 1 (P11362 whole entry): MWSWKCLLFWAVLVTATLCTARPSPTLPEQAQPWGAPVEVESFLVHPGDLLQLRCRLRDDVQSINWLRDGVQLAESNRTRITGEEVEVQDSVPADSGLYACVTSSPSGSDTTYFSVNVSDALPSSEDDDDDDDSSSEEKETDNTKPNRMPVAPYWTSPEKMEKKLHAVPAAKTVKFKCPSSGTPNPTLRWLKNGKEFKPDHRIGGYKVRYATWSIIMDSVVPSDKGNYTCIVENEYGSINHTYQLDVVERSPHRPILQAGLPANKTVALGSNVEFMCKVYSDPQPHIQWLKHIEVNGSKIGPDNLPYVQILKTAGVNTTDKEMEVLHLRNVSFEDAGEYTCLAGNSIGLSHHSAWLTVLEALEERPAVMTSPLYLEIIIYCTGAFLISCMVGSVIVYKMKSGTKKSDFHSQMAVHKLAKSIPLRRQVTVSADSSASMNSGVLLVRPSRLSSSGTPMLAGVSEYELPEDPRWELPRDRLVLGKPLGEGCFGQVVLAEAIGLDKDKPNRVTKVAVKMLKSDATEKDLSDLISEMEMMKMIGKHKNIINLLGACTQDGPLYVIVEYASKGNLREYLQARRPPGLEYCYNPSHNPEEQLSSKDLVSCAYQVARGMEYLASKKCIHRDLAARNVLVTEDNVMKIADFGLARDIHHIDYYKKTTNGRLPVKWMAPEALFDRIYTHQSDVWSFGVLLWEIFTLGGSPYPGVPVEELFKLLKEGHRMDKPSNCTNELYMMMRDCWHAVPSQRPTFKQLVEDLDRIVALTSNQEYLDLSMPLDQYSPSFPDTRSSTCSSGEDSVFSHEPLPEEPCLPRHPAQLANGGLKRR

`COc1ccc(F)c(-c2ccc3c(NC(=O)c4ccc(N5CCN(C(C)=O)CC5)cc4)n[nH]c3c2)c1F` gave an IC50 (SNU-16) of 322 nM, an IC50 (KG-1) of 595 nM and an IC50 [1] of 2.9 nM.
For `COc1cccc(-c2ccc3c(NC(=O)c4ccc(N5CCN(C)CC5)c(F)c4)n[nH]c3c2)c1F`, the IC50 (SNU-16) was > 1000 nM and the IC50 (KG-1) was > 1000 nM.
`COc1cc(CCc2cc(NC(=O)c3ccc(N4C[C@@H](C)N[C@@H](C)C4)cc3)n[nH]2)cc(OC)c1` [FEXAGRATINIB] showed an IC50 (SNU-16) of 3.4 nM and an IC50 (KG-1) of 3.3 nM.
For `CCN1CCN(c2ccc(C(=O)Nc3n[nH]c4cc(-c5cccc(OC)c5F)c(F)cc34)cc2)CC1`, the IC50 (SNU-16) was > 1000 nM and the IC50 (KG-1) was 684 nM.
With `COc1ccc(F)c(-c2ccc3c(NC(=O)c4ccc(N(C)CCN(C)C)cc4)n[nH]c3c2)c1F` the IC50 (SNU-16) was 366 nM and the IC50 (KG-1) was 333 nM.
With `COc1ccc(F)c(-c2ccc3c(NC(=O)c4ccc(N5C[C@@H](C)N[C@@H](C)C5)cc4)n[nH]c3c2)c1F` the IC50 (SNU-16) was 582 nM and the IC50 (KG-1) was 348 nM.
`CCN1CCN(c2ccc(C(=O)Nc3n[nH]c4cc(-c5c(F)ccc(OC)c5F)ccc34)cc2)CC1` was tested, and the IC50 (SNU-16) was 77.4 nM, the IC50 (KG-1) was 25.3 nM and the IC50 [2] was < 4.1 nM.
In the case of `CCN1CCN(c2ccc(C(=O)Nc3n[nH]c4cc(-c5c(F)cc(F)c(OC)c5F)ccc34)cc2)CC1`, the IC50 (SNU-16) is reported as > 1000 nM and the IC50 (KG-1) is reported as > 1000 nM.
With `CCN1CCN(c2ccc(C(=O)Nc3n[nH]c4cc(-c5cccc(OC)c5F)ccc34)cc2)CC1` the IC50 (SNU-16) was 591 nM and the IC50 (KG-1) was 284 nM.
For `CCN1CCN(c2ccc(C(=O)Nc3n[nH]c4cc(-c5cccc(OC)c5F)ccc34)cc2C(F)(F)F)CC1`, the IC50 (SNU-16) was > 1000 nM, the IC50 (KG-1) was > 1000 nM and the IC50 [1] was > 1000 nM. For the same compound, the IC50 [2] was > 1000 nM.
In the case of `COc1cccc(-c2ccc3c(NC(=O)c4ccc(N5CCN(C)CC5)cc4F)n[nH]c3c2)c1F`, the IC50 (SNU-16) is reported as > 1000 nM, the IC50 (KG-1) is reported as > 1000 nM and the IC50 [1] is reported as > 1000 nM. For the same compound, the IC50 [2] was > 1000 nM.
In the case of `COCCN1CCN(c2ccc(C(=O)Nc3n[nH]c4cc(-c5c(F)cc(F)c(OC)c5F)ccc34)cc2)CC1`, the IC50 (SNU-16) is reported as > 1000 nM and the IC50 (KG-1) is reported as > 1000 nM.
For `CCN1CCN(c2ccc(C(=O)Nc3n[nH]c4cc(-c5cccc(OC)c5F)cc(F)c34)cc2)CC1`, the IC50 (SNU-16) was > 1000 nM and the IC50 (KG-1) was > 1000 nM.
`COCCN1CCN(c2ccc(C(=O)Nc3n[nH]c4cc(-c5c(F)ccc(OC)c5F)ccc34)cc2)CC1` was tested, and the IC50 (SNU-16) was 431 nM and the IC50 (KG-1) was 47.3 nM.
For `COc1ccc(F)c(-c2ccc3c(NC(=O)c4ccc(N5CCN(C)CC5)cc4)n[nH]c3c2)c1F`, the IC50 (SNU-16) was 35.6 nM, the IC50 (KG-1) was 41.5 nM and the IC50 [1] was < 4.1 nM.
`COc1ccc(F)c(-c2ccc3c(NC(=O)c4ccc(N5CCCN(C)CC5)cc4)n[nH]c3c2)c1F` showed an IC50 (SNU-16) of 102 nM and an IC50 (KG-1) of 51.5 nM.
